# Source: ChEMBL document CHEMBL4052796, “Design, synthesis and biological evaluation of dual acetylcholinesterase and phosphodiesterase 5A inhibitors in treatment for Alzheimer's disease” (Bioorg Med Chem Lett, 2017)
# Key:
# Acetylcholinesterase = Acetylcholinesterase (Homo sapiens, UniProt P22303); assay: Inhibition of AChE (unknown origin) using acetylthiocholine as substrate by Ellman's method
# [1] = biological target: cGMP-specific 3',5'-cyclic phosphodiesterase (Homo sapiens, UniProt O76074); assay: Inhibition of human PDE5A preincubated for 30 mins followed by TMB substrate addition by spectrophotometry
# A549 = assay: Cytotoxicity against human A549 cells at 50 ug/ml after 24 hrs by CCK-8 assay; format: cell-based; details: a549, 24 h
# Sequence of Acetylcholinesterase (P22303 whole entry): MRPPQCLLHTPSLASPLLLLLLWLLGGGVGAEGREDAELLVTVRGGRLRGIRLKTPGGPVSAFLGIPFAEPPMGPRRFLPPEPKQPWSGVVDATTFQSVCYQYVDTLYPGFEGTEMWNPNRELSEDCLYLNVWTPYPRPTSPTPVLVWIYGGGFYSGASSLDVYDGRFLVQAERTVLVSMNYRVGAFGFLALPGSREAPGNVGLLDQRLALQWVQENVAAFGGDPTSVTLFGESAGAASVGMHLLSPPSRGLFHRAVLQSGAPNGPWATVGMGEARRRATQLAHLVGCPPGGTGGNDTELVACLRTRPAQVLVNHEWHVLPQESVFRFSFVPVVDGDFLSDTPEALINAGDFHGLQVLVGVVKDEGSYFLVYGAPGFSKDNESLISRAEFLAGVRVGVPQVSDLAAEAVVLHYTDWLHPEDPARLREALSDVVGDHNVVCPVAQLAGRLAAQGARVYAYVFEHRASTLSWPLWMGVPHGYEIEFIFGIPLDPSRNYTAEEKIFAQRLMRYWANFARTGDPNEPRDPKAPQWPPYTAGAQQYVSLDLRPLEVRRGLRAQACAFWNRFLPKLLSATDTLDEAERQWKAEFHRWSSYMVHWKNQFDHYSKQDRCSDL
SMILES,IC50 (Acetylcholinesterase) [µM],IC50 [1] [µM],Activity (A549)
O=C1C(=O)N(Cc2ccc(Br)cc2)c2ccc(Br)cc21,0.0891,131,–
COC(=O)C(=O)c1cc(C)ccc1NC(=O)c1ccccc1,> 1,–,–
Cc1ccc2c(c1)C(=O)C(=O)N2Cc1ccccc1[N+](=O)[O-],0.2,200,–
CN1CCN(Cc2ccc3c(c2)C(=O)C(=O)N3C(=O)c2ccccc2)CC1,0.0479,> 1000,–
CCN(CC)Cc1ccc(NC(=O)c2ccccc2)c(C(=O)C(=O)N(CC)CC)c1,0.0447,158,Non-Toxic
O=C1C(=O)N(Cc2ccccc2[N+](=O)[O-])c2ccc(Br)cc21,0.263,–,–
Cc1ccc2c(c1)CC(=O)N2C(=O)c1ccccc1,> 1,91.2,–
O=C(Nc1ccc(CN2CCOCC2)cc1C(=O)C(=O)N1C(=O)CCC1=O)c1ccccc1,0.229,–,–
COc1ccc(NCc2ccc3c(c2)C(=O)C(=O)N3C(=O)c2ccccc2)cc1,0.17,100,–
O=C1C(=O)N(C(=O)c2ccccc2)c2ccc(CN3CCCCC3)cc21,0.0794,50,Non-Toxic
Cc1ccc2c(c1)C(=O)C(=O)N2C(=O)N(C)C,0.144,100,Non-Toxic
O=C(O)CCC(=O)NCc1ccc2c(c1)CC(=O)N2C(=O)c1ccccc1,> 1,17.6,–
Cc1ccc2c(c1)C(=O)C(=O)N2C(=O)c1ccccc1,> 1,746,–
Cc1ccc2c(c1)C(=O)C(=O)N2Cc1ccc(Br)cc1,0.204,–,–
O=C1C(=O)N(C(=O)c2ccccc2)c2ccc(CNc3ccc(Br)cc3)cc21,0.398,–,–
